Results reported in patent US20230330093A1, “APPLICATION OF NITROGEN-CONTAINING SATURATED HETEROCYCLIC COMPOUND” (SHANGHAI PHARMACEUTICALS HOLDING CO., LTD., priority 2020, published 2023).

System: cynomolgus monkeys
Assay: 4-week safety study: necropsy, gross pathology and organ weights;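 further: daily nasogastric dosing for 28 days, organs weighed at necropsy on day 28 or after a 28-day drug-free recovery (day 56), relative weights expressed as percent of body or brain weight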
Protocol: Cynomolgus monkeys (5/sex/group) were selected using a computerized randomization procedure based on body weight, and the compound of Formula I was administered to the cynomolgus monkeys by nasogastric feeding at dose levels of 0 (control), 20, 100, 450 mg/kg/day in a volume of 5 ml/kg. Individual dose volumes were adjusted weekly based on body weight of animals. For all the groups, 2/3 of the animals were randomly selected and euthanized on day 28. The remaining animals were euthanized after 28-day drug free period.
A complete gross necropsy was conducted on all animals by visual inspection at the end of the exposure period (day 28) and the recovery phase (day 56). The following selected organs were trimmed, weighed and evaluated in terms of absolute weight and as a percentage of final body weight or brain weight: brain, heart, kidney, liver, spleen, thymus, testes, epididymides, uterus, ovaries, adrenals and thyroid (including the parathyroid). The following tissues were preserved in 10% neutral buffered formalin: brain, pituitary gland, thyroid (including the parathyroid), trachea, heart, pancreas, spleen, adrenal glands, prostate, ovaries, uterus (including cervix uteri and oviduct), vagina, testes, epididymides, seminal vesicle, esophagus, duodenum, jejunum, ileum, cecum, colon, rectum, mesenteric lymph nodes, Peyer's patches, submaxillary lymph nodes, aorta, eyes, skeletal muscle, sciatic nerve, femur (including metaphysis), mammary gland, sternum, salivary glands, spinal cord, urinary bladder, lung (including the bronchi), liver, kidneys, stomach, bone marrow (sternal), thymus, sternum, gallbladder, any gross lesions or masses. The lung tissue was inflated with fixative at the time of necropsy. All the preserved tissues were paraffin embedded, sectioned, stained with hematoxylin and eosin (HE) and examined microscopically. Bone marrow cellular morphology examination was conducted with both smear (sternum) and paraffin-embedded sternum section.
For each sex, body weight, rectal temperature, ECG, organ weight, hematological parameters and serum biochemical data were analyzed with a statistical software SAS 9.3. Firstly homogeneity of variance was analyzed using Levene's test. If P>0.05, the one-way ANOVA analysis was employed. If P<0.05, the Kruskal-Wallis test was used. If the resulting ANOVA p-value was <0.05, a comparison of each group using the Dunnett T test was performed. If the resulting Kruskal-Wallis test p-value was <0.05, then the Dunnett T test was performed after data rank conversion.

COC(=O)NCCCn1nc([C@@H](C)N(C(=O)[C@H]2CNCCO2)C2CC2)c2ccc(C)nc21 [compound of Formula I]
Thymus Absolute weight (Female, 450 mg/kg, d 56): 1.40 ± 0.14 g | Thymus Relative weight (/body weight) (Female, 450 mg/kg, d 56): 0.04 ± 0.01 | Thymus Relative weight (/brain weight) (Female, 450 mg/kg, d 56): 2.12 ± 0.29 | Uterus Absolute weight (Female, 450 mg/kg, d 56): 9.60 ± 2.40 g | Uterus Relative weight (/body weight) (Female, 450 mg/kg, d 56): 0.27 ± 0.03 | Uterus Relative weight (/brain weight) (Female, 450 mg/kg, d 56): 14.43 ± 3.09 | kidney Absolute weight (Female, 450 mg/kg, d 56): 14.75 ± 1.91 g | kidney Relative weight (/body weight) (Female, 450 mg/kg, d 56): 0.42 ± 0.00 | kidney Relative weight (/brain weight) (Female, 450 mg/kg, d 56): 22.23 ± 2.05 | Liver Absolute weight (Male, 20 mg/kg, d 28): 69.03 ± 2.87 g | Liver Relative weight (/body weight) (Male, 20 mg/kg, d 28): 1.82 ± 0.21 | Liver Relative weight (/brain weight) (Male, 20 mg/kg, d 28): 103.68 ± 11.79 | Thymus Absolute weight (Male, 20 mg/kg, d 28): 1.10 ± 0.20 g | Thymus Relative weight (/body weight) (Male, 20 mg/kg, d 28): 0.03 ± 0.01 | Thymus Relative weight (/brain weight) (Male, 20 mg/kg, d 28): 1.67 ± 0.43 | kidney Absolute weight (Male, 20 mg/kg, d 28): 14.30 ± 1.42 g | kidney Relative weight (/body weight) (Male, 20 mg/kg, d 28): 0.37 ± 0.02 | kidney Relative weight (/brain weight) (Male, 20 mg/kg, d 28): 21.46 ± 2.99 | Liver Absolute weight (Male, 20 mg/kg, d 56): 71.25 ± 1.77 g | Liver Relative weight (/body weight) (Male, 20 mg/kg, d 56): 1.44 ± 0.02 | Liver Relative weight (/brain weight) (Male, 20 mg/kg, d 56): 100.96 ± 1.74 | Thymus Absolute weight (Male, 20 mg/kg, d 56): 2.95 ± 0.07 g | Thymus Relative weight (/body weight) (Male, 20 mg/kg, d 56): 0.06 ± 0.00 | Thymus Relative weight (/brain weight) (Male, 20 mg/kg, d 56): 4.18 ± 0.08 | kidney Absolute weight (Male, 20 mg/kg, d 56): 16.40 ± 3.11 g | kidney Relative weight (/body weight) (Male, 20 mg/kg, d 56): 0.33 ± 0.06 | kidney Relative weight (/brain weight) (Male, 20 mg/kg, d 56): 23.16 ± 3.43 | Liver Absolute weight (Male, 100 mg/kg, d 28): 72.93 ± 14.69 g | Liver Relative weight (/body weight) (Male, 100 mg/kg, d 28): 1.83 ± 0.25 | Liver Relative weight (/brain weight) (Male, 100 mg/kg, d 28): 100.31 ± 9.48 | Thymus Absolute weight (Male, 100 mg/kg, d 28): 1.57 ± 0.90 g | Thymus Relative weight (/body weight) (Male, 100 mg/kg, d 28): 0.04 ± 0.03 | Thymus Relative weight (/brain weight) (Male, 100 mg/kg, d 28): 2.27 ± 1.44 | kidney Absolute weight (Male, 100 mg/kg, d 28): 15.13 ± 3.62 g | kidney Relative weight (/body weight) (Male, 100 mg/kg, d 28): 0.37 ± 0.06 | kidney Relative weight (/brain weight) (Male, 100 mg/kg, d 28): 20.85 ± 3.95 | Liver Absolute weight (Male, 100 mg/kg, d 56): 84.75 ± 5.59 g | Liver Relative weight (/body weight) (Male, 100 mg/kg, d 56): 1.76 ± 0.06 | Liver Relative weight (/brain weight) (Male, 100 mg/kg, d 56): 115.98 ± 8.59 | Thymus Absolute weight (Male, 100 mg/kg, d 56): 2.45 ± 0.35 g | Thymus Relative weight (/body weight) (Male, 100 mg/kg, d 56): 0.05 ± 0.01 | Thymus Relative weight (/brain weight) (Male, 100 mg/kg, d 56): 3.33 ± 0.02 | kidney Absolute weight (Male, 100 mg/kg, d 56): 17.85 ± 1.91 g | kidney Relative weight (/body weight) (Male, 100 mg/kg, d 56): 0.37 ± 0.03 | kidney Relative weight (/brain weight) (Male, 100 mg/kg, d 56): 24.36 ± 0.80 | Liver Absolute weight (Male, 450 mg/kg, d 28): 94.37 ± 12.72 g | Liver Relative weight (/body weight) (Male, 450 mg/kg, d 28): 2.42 ± 0.20 | Liver Relative weight (/brain weight) (Male, 450 mg/kg, d 28): 135.54 ± 14.14 | Thymus Absolute weight (Male, 450 mg/kg, d 28): 0.90 ± 0.10 g | Thymus Relative weight (/body weight) (Male, 450 mg/kg, d 28): 0.02 ± 0.01 | Thymus Relative weight (/brain weight) (Male, 450 mg/kg, d 28): 1.30 ± 0.20 | kidney Absolute weight (Male, 450 mg/kg, d 28): 16.77 ± 2.31 g | kidney Relative weight (/body weight) (Male, 450 mg/kg, d 28): 0.43 ± 0.03 | kidney Relative weight (/brain weight) (Male, 450 mg/kg, d 28): 24.07 ± 2.45 | Liver Absolute weight (Male, 450 mg/kg, d 56): 80.90 ± 4.95 g | Liver Relative weight (/body weight) (Male, 450 mg/kg, d 56): 1.64 ± 0.22 | Liver Relative weight (/brain weight) (Male, 450 mg/kg, d 56): 119.80 ± 2.56 | Thymus Absolute weight (Male, 450 mg/kg, d 56): 2.20 ± 0.42 g | Thymus Relative weight (/body weight) (Male, 450 mg/kg, d 56): 0.04 ± 0.01 | Thymus Relative weight (/brain weight) (Male, 450 mg/kg, d 56): 3.25 ± 0.50 | kidney Absolute weight (Male, 450 mg/kg, d 56): 18.75 ± 0.21 g | kidney Relative weight (/body weight) (Male, 450 mg/kg, d 56): 0.38 ± 0.02 | kidney Relative weight (/brain weight) (Male, 450 mg/kg, d 56): 27.81 ± 1.42 | absolute or relative weight of uterus (high-dose monkeys): lower | relative weight of liver and kidney (high-dose monkeys): Higher | relative weight of thymus (high-dose monkeys): lower | macroscopic findings related to administration (necropsy day 28 / day 56): no macroscopic findings for monkeys deemed related to administration of the test article except mild intestinal tympanites and thymus atrophy for the monkey that died early
